In US20230278972A1, “SUBSTITUTED HALOALKYL SULFONANILIDE HERBICIDES” (FMC Corporation, priority 2020, published 2023):

Experiments:
Assay type in all cases: in vivo
[1] = tested on: barnyardgrass (Echinochloa crus-galli); test: Test A postemergence, barnyardgrass; settings: Postemergence, 0 to 100 scale (0 no effect, 100 complete control); for Plant response rating, Barnyardgrass: 125 g ai/ha; for Barnyardgrass plant response rating: 500 g ai/ha, visual injury vs untreated controls after approx. 10 days
Procedure, shortened: (§1)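 Postemergence ratings come from foliar sprays onto one- to two-leaf plants of 2 to 10 cm grown in loam/sand; preemergence ratings come from a directed spray onto the soil of newly seeded pots. Formulation was a surfactant-containing non-phytotoxic solvent blend.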

[2] = tested on: Foxtail, Giant (giant foxtail, Setaria faberi); test: Test A preemergence, Foxtail, Giant; settings: Preemergence; for Foxtail, Giant plant response rating: 125 g ai/ha, visual injury on 0 to 100 scale (0 no effect, 100 complete control), approximately 10 days; for Plant response rating, Foxtail, Giant: 500 g ai/ha, 0 to 100 scale (0 no effect, 100 complete control)
Procedure, shortened: as §1

[3] = tested on: galium (catchweed bedstraw, Galium aparine); test: Test A postemergence, galium; settings: Postemergence, 0 to 100 scale (0 no effect, 100 complete control); for Plant response rating, Galium: 125 g ai/ha; for Galium plant response rating: 500 g ai/ha, visual injury vs untreated controls after approx. 10 days
Procedure, shortened: as §1

corn (Zea mays) = test: Test A postemergence, corn; settings: Postemergence, 0 to 100 scale (0 no effect, 100 complete control); for Plant response rating, Corn: 125 g ai/ha; for Corn plant response rating: 500 g ai/ha, visual injury vs untreated controls after approx. 10 days
Procedure, shortened: as §1

[4] = tested on: Foxtail, Giant (giant foxtail, Setaria faberi); test: Test A postemergence, Foxtail, Giant; settings: Postemergence, 0 to 100 scale (0 no effect, 100 complete control); for Plant response rating, Foxtail, Giant: 125 g ai/ha; for Foxtail, Giant plant response rating: 500 g ai/ha, visual injury vs untreated controls after approx. 10 days
Procedure, shortened: as §1

[5] = tested on: ragweed (common ragweed, Ambrosia artemisiifolia); test: Test A preemergence, ragweed; settings: Preemergence; for Ragweed plant response rating: 125 g ai/ha, visual injury on 0 to 100 scale (0 no effect, 100 complete control), approximately 10 days; for Plant response rating, Ragweed: 500 g ai/ha, 0 to 100 scale (0 no effect, 100 complete control)
Procedure, shortened: as §1

[6] = tested on: wheat (Triticum aestivum); test: Test A postemergence, wheat; settings: Postemergence, 0 to 100 scale (0 no effect, 100 complete control); for Plant response rating, Wheat: 125 g ai/ha; for Wheat plant response rating: 500 g ai/ha, visual injury vs untreated controls after approx. 10 days
Procedure, shortened: as §1

[7] = tested on: Ryegrass, Italian (Italian ryegrass, Lolium multiflorum); test: Test A preemergence, Ryegrass, Italian; settings: Preemergence; for Ryegrass, Italian plant response rating: 125 g ai/ha, visual injury on 0 to 100 scale (0 no effect, 100 complete control), approximately 10 days; for Plant response rating, Ryegrass, Italian: 500 g ai/ha, 0 to 100 scale (0 no effect, 100 complete control)
Procedure, shortened: as §1

kochia (Bassia scoparia) [8] = test: Test A preemergence, kochia; settings: Preemergence; for Kochia plant response rating: 125 g ai/ha, visual injury on 0 to 100 scale (0 no effect, 100 complete control), approximately 10 days; for Plant response rating, Kochia: 500 g ai/ha, 0 to 100 scale (0 no effect, 100 complete control)
Procedure, shortened: as §1

[9] = tested on: blackgrass (Alopecurus myosuroides); test: Test A postemergence, blackgrass; settings: Postemergence, 0 to 100 scale (0 no effect, 100 complete control); for Plant response rating, Blackgrass: 125 g ai/ha; for Blackgrass plant response rating: 500 g ai/ha, visual injury vs untreated controls after approx. 10 days
Procedure, shortened: as §1

[10] = tested on: Ryegrass, Italian (Italian ryegrass, Lolium multiflorum); test: Test A postemergence, Ryegrass, Italian; settings: Postemergence, 0 to 100 scale (0 no effect, 100 complete control); for Plant response rating, Ryegrass, Italian: 125 g ai/ha; for Ryegrass, Italian plant response rating: 500 g ai/ha, visual injury vs untreated controls after approx. 10 days
Procedure, shortened: as §1

[11] = tested on: barnyardgrass (Echinochloa crus-galli); test: Test A preemergence, barnyardgrass; settings: Preemergence; for Barnyardgrass plant response rating: 125 g ai/ha, visual injury on 0 to 100 scale (0 no effect, 100 complete control), approximately 10 days; for Plant response rating, Barnyardgrass: 500 g ai/ha, 0 to 100 scale (0 no effect, 100 complete control)
Procedure, shortened: as §1

[12] = tested on: pigweed (Amaranthus retroflexus); test: Test A postemergence, pigweed; settings: Postemergence, 0 to 100 scale (0 no effect, 100 complete control); for Plant response rating, Pigweed: 125 g ai/ha; for Pigweed plant response rating: 500 g ai/ha, visual injury vs untreated controls after approx. 10 days
Procedure, shortened: as §1

kochia (Bassia scoparia) [13] = test: Test A postemergence, kochia; settings: Postemergence, 0 to 100 scale (0 no effect, 100 complete control); for Plant response rating, Kochia: 125 g ai/ha; for Kochia plant response rating: 500 g ai/ha, visual injury vs untreated controls after approx. 10 days
Procedure, shortened: as §1

[14] = tested on: ragweed (common ragweed, Ambrosia artemisiifolia); test: Test A postemergence, ragweed; settings: Postemergence, 0 to 100 scale (0 no effect, 100 complete control); for Plant response rating, Ragweed: 125 g ai/ha; for Ragweed plant response rating: 500 g ai/ha, visual injury vs untreated controls after approx. 10 days
Procedure, shortened: as §1

[15] = tested on: pigweed (Amaranthus retroflexus); test: Test A preemergence, pigweed; settings: for Pigweed plant response rating: 125 g ai/ha, visual injury on 0 to 100 scale (0 no effect, 100 complete control), approximately 10 days; for Plant response rating, Pigweed: 500 g ai/ha, 0 to 100 scale (0 no effect, 100 complete control)
Procedure, shortened: as §1

Row | SMILES | Plant response rating, Barnyardgrass [1] | Barnyardgrass plant response rating [1] | Foxtail, Giant plant response rating [2] | Plant response rating, Foxtail, Giant [2] | Plant response rating, Galium [3] | Galium plant response rating [3] | Plant response rating, Corn (corn (Zea mays)) | Corn plant response rating (corn (Zea mays)) | Plant response rating, Foxtail, Giant [4] | Foxtail, Giant plant response rating [4] | Ragweed plant response rating [5] | Plant response rating, Ragweed [5] | Plant response rating, Wheat [6] | Wheat plant response rating [6] | Ryegrass, Italian plant response rating [7] | Plant response rating, Ryegrass, Italian [7] | Kochia plant response rating (kochia (Bassia scoparia) [8]) | Plant response rating, Kochia (kochia (Bassia scoparia) [8]) | Plant response rating, Blackgrass [9] | Blackgrass plant response rating [9] | other results
1 | COC1CCCN(C(=O)c2cc(NS(=O)(=O)C(F)(F)F)c(C)cc2C)C1 (stereo not drawn) [Compound 175] | 20 | 90 | 100 | 100 | 80 | 90 | 0 | 10 | 0 | 30 | 80 | 100 | 10 | 80 | 90 | 100 | 90 | 100 | 0 | 20 | Plant response rating, Ryegrass, Italian [10]: 30; Ryegrass, Italian plant response rating [10]: 80; Barnyardgrass plant response rating [11]: 90; Plant response rating, Barnyardgrass [11]: 100; Plant response rating, Pigweed [12]: 50; Pigweed plant response rating [12]: 90; Plant response rating, Kochia (kochia (Bassia scoparia) [13]): 10; Kochia plant response rating (kochia (Bassia scoparia) [13]): 50; Plant response rating, Ragweed [14]: 50; Ragweed plant response rating [14]: 90; Pigweed plant response rating [15]: 90; Plant response rating, Pigweed [15]: 100
2 | Cc1cc(C)c(C2=NOC3(CCOCC3)C2)cc1NS(=O)(=O)C(F)(F)F [Compound 177] | 70 | 90 | 70 | 100 | 90 | 90 | 0 | 50 | 10 | 60 | 70 | 90 | 20 | 80 | 100 | 100 | 100 | 100 | 0 | 30 | Plant response rating, Ryegrass, Italian [10]: 40; Ryegrass, Italian plant response rating [10]: 90; Barnyardgrass plant response rating [11]: 80; Plant response rating, Barnyardgrass [11]: 100; Plant response rating, Pigweed [12]: 60; Pigweed plant response rating [12]: 90; Plant response rating, Kochia (kochia (Bassia scoparia) [13]): 20; Kochia plant response rating (kochia (Bassia scoparia) [13]): 70; Plant response rating, Ragweed [14]: 90; Ragweed plant response rating [14]: 90; Pigweed plant response rating [15]: 80; Plant response rating, Pigweed [15]: 100
3 | Cc1cc(C)c(N(S(=O)(=O)C(F)(F)F)S(=O)(=O)C(F)(F)F)cc1C1=NOC2(CCOCC2)C1 [Compound 178] | 40 | 90 | 90 | 100 | 80 | 90 | 0 | 10 | 0 | 20 | 80 | 90 | 10 | 30 | 90 | 100 | 90 | 100 | 0 | 0 | Plant response rating, Ryegrass, Italian [10]: 0; Ryegrass, Italian plant response rating [10]: 30; Barnyardgrass plant response rating [11]: 90; Plant response rating, Barnyardgrass [11]: 100; Plant response rating, Pigweed [12]: 60; Pigweed plant response rating [12]: 90; Plant response rating, Kochia (kochia (Bassia scoparia) [13]): 20; Kochia plant response rating (kochia (Bassia scoparia) [13]): 70; Plant response rating, Ragweed [14]: 40; Ragweed plant response rating [14]: 80; Pigweed plant response rating [15]: 100; Plant response rating, Pigweed [15]: 100
